The record followed here is PubChem BioAssay AID328 (DTP/NCI, 2004).

For this assay, the system named is BDF1 mice, P388 leukemia ip, median survival T/C. The assay can be described thus: NCI In Vivo Anticancer Drug Screen. Data for tumor model P388 Leukemia (intraperitoneal) in B6D2F1 (BDF1) mice. The note with it: endpoint: median survival time, higher = longer survival. An outline of the steps: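 T/C = treated-group survival ÷ vehicle-control survival; tumour transplanted into mice before dosing.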

[1] abbreviates: dose: 6.25 mg/kg/injection, schedule: Q01DX009 (ip), vehicle: saline.
[2] abbreviates: dose: 12.5 mg/kg/injection, schedule: Q01DX009 (ip), vehicle: saline.
The mark [3] stands for this setting: dose: 25.0 mg/kg/injection, schedule: Q01DX009 (ip), vehicle: saline.
Where [4] appears, read: dose: 50.0 mg/kg/injection, schedule: Q01DX009 (ip), vehicle: saline.
The mark [5] stands for this setting: dose: 50.0 mg/kg/injection, schedule: Q04DX003 (ip), vehicle: saline with Tween-80.
The mark [6] stands for this setting: dose: 100.0 mg/kg/injection, schedule: Q04DX003 (ip), vehicle: saline with Tween-80.
Setting [7] is: dose: 200.0 mg/kg/injection, schedule: Q04DX003 (ip), vehicle: saline with Tween-80.
[8] abbreviates: dose: 100.0 mg/kg/injection, schedule: Q01DX009 (ip), vehicle: Klucel (hydroxypropylcellulose) (HPC).
Setting [9] is: dose: 100.0 mg/kg/injection, schedule: Q04DX003 (ip), vehicle: Klucel (hydroxypropylcellulose) (HPC).
Setting [10] is: dose: 200.0 mg/kg/injection, schedule: Q01DX009 (ip), vehicle: Klucel (hydroxypropylcellulose) (HPC).
Where [11] appears, read: dose: 200.0 mg/kg/injection, schedule: Q04DX003 (ip), vehicle: Klucel (hydroxypropylcellulose) (HPC).
Where [12] appears, read: dose: 400.0 mg/kg/injection, schedule: Q04DX003 (ip), vehicle: Klucel (hydroxypropylcellulose) (HPC).

Values joined by “and” are separate entries in the source; they are usually repeats but may differ in a detail not shown here. Equal entries are not always repeated. Inconclusive results and toxic doses are left out.

As for `CCNc1ccc(/C=C2\C=Cc3ccccc32)cc1`, the T/C (dose: 0.39 mg/kg/injection, schedule: Q01DX009 (ip), vehicle: Klucel (hydroxypropylcellulose) (HPC)) was 100 % of control; the T/C (dose: 0.78 mg/kg/injection, schedule: Q01DX009 (ip), vehicle: Klucel (hydroxypropylcellulose) (HPC)) is 105 % of control; the T/C (dose: 1.56 mg/kg/injection, schedule: Q01DX009 (ip), vehicle: Klucel (hydroxypropylcellulose) (HPC)) is 110 % of control; the T/C (dose: 3.12 mg/kg/injection, schedule: Q01DX009 (ip), vehicle: Klucel (hydroxypropylcellulose) (HPC)) was 90 % of control; the T/C (dose: 6.25 mg/kg/injection, schedule: Q01DX009 (ip), vehicle: olive oil, sesame oil, peanut oil) is 113 % of control; the T/C (dose: 12.5 mg/kg/injection, schedule: Q01DX009 (ip), vehicle: Klucel (hydroxypropylcellulose) (HPC)) is 95 % of control. For the same compound, the T/C reads like this: (dose: 12.5 mg/kg/injection, schedule: Q01DX009 (ip), vehicle: olive oil, sesame oil, peanut oil) 118 % of control; (dose: 25.0 mg/kg/injection, schedule: Q01DX009 (ip), vehicle: olive oil, sesame oil, peanut oil) 118 % of control; (dose: 50.0 mg/kg/injection, schedule: Q01DX009 (ip), vehicle: olive oil, sesame oil, peanut oil) 100 % of control.

As for `CCCCCC(CN(C)C)C(O)/C=C/c1ccccc1Cl` (centres undefined), the T/C is 110 % of control (dose: 3.12 mg/kg/injection, schedule: Q01DX009 (ip), vehicle: saline); 100 % of control under setting [1]; 105 % of control under setting [2]; 107 % of control under setting [3]; 117 % of control under setting [4].

Consider `C=CCC1(CC)C(=O)NC(=O)NC1=O`, for which the T/C is 91 % of control under setting [5], 91 % of control under setting [6] and 91 % of control under setting [7].

`NCCNCC[OH2+].NCCNCC[OH2+].O=S(=O)([O-])[O-].[Cu+2]`: the T/C under setting [1] is 105 % of control, the T/C under setting [2] is 108 % of control and the T/C under setting [3] is 103 % of control.

In the case of `NC(=S)N/N=C/c1ccc(NC(=O)c2ccccc2C(=O)O)cc1`, the T/C (dose: 25.0 mg/kg/injection, schedule: Q01DX009 (ip), vehicle: saline with Tween-80) is 95 % of control; the T/C (dose: 50.0 mg/kg/injection, schedule: Q01DX009 (ip), vehicle: saline with Tween-80) was 87 % of control; the T/C (dose: 100.0 mg/kg/injection, schedule: Q01DX009 (ip), vehicle: saline with Tween-80) was 100 % of control.

As for `O=C(Nc1ccc2c(c1)OCO2)O/N=C\c1cccnc1`, the T/C under setting [5] is 100 % of control, the T/C under setting [6] is 109 % of control and the T/C under setting [7] is 109 % of control.

On to `CC(=O)C1(O)Cc2c(O)c3c(c(O)c2C(O)C1)C(=O)c1c(OC(C)C)cccc1C3=O` (centres undefined), for which the T/C (dose: 3.13 mg/kg/injection, schedule: Q04DX003 (ip), vehicle: other) was 108 % of control; the T/C (dose: 3.13 mg/kg/injection, schedule: Q04DX009 (ip), vehicle: other) was 101 % of control; the T/C (dose: 6.25 mg/kg/injection, schedule: Q04DX003 (ip), vehicle: other) was 105 % of control; the T/C (dose: 6.25 mg/kg/injection, schedule: Q04DX009 (ip), vehicle: other) is 92 % of control; the T/C (dose: 12.5 mg/kg/injection, schedule: Q04DX003 (ip), vehicle: other) was 100 % of control; the T/C (dose: 12.5 mg/kg/injection, schedule: Q04DX009 (ip), vehicle: other) was 110 % of control. Also, the T/C was 105 % of control (dose: 25.0 mg/kg/injection, schedule: Q04DX003 (ip), vehicle: other); 110 % of control (dose: 25.0 mg/kg/injection, schedule: Q04DX009 (ip), vehicle: other); 101 % of control (dose: 50.0 mg/kg/injection, schedule: Q04DX003 (ip), vehicle: other); 99 % of control (dose: 50.0 mg/kg/injection, schedule: Q04DX009 (ip), vehicle: other).

On to `CCN1C(=O)CC(=O)N(CC)C1=S`, for which the T/C was 95 % of control (dose: 50.0 mg/kg/injection, schedule: Q01DX009 (ip), vehicle: Klucel (hydroxypropylcellulose) (HPC)); 91 % of control under setting [8]; 96 % of control under setting [9]; 104 % of control under setting [10]; 92 % of control under setting [11].

Regarding `Nc1nc(N)c2cc(CNc3ccc(C(=O)NC(CC(=O)O)CC(=O)O)cc3)ccc2n1`, the T/C (dose: 132.0 mg/kg/injection, schedule: Q01DX009 (ip), vehicle: saline with Tween-80) is 90 % of control.

`O=NN(CCF)C(=O)NC1CCS(=O)(=O)CC1`: the T/C is, setting by setting: (dose: 0.15 mg/kg/injection, schedule: Q04DX003 (ip), vehicle: saline) 115 % of control; (dose: 0.3 mg/kg/injection, schedule: Q04DX003 (ip), vehicle: saline) 120 % of control.

For `Cc1ccc2[nH]c(=S)[nH]c(=S)c2c1`, the T/C runs as follows: under setting [6], 108 % of control; under setting [7], 95 % of control; (dose: 400.0 mg/kg/injection, schedule: Q04DX003 (ip), vehicle: saline with Tween-80) 108 % of control.

Turning to `CC1(C)NC(=O)N(CN2CCN(CN3C(=O)NC(C)(C)C3=O)CC2)C1=O`, the T/C (dose: 100.0 mg/kg/injection, schedule: Q04DX003 (ip), vehicle: saline sonified) was 107 % of control; the T/C (dose: 200.0 mg/kg/injection, schedule: Q04DX003 (ip), vehicle: saline sonified) is 115 % of control; the T/C (dose: 400.0 mg/kg/injection, schedule: Q04DX003 (ip), vehicle: saline sonified) is 115 % of control.

Regarding `CCC1(O)CC(OC2CC(N(C)C)C(OC3CC(O)C(OC4CCC(=O)C(C)O4)C(C)O3)C(C)O2)c2c(cc3c(c2O)C(=O)c2c(O)ccc(O)c2C3=O)C1C(=O)OC` (centres undefined), the T/C is, setting by setting: (dose: 2.88 mg/kg/injection, schedule: Q04DX003 (ip), vehicle: water) 181 % of control; (dose: 4.8 mg/kg/injection, schedule: Q04DX003 (ip), vehicle: water) 236 % of control; (dose: 1:8.0 dilution, schedule: Q01DX009 (ip), vehicle: saline) 173 % of control; (dose: 1:64.0 dilution, schedule: Q01DX009 (ip), vehicle: saline) 116 % of control.

Consider `CNC(=O)c1nc(C)c(C)nc1OCc1ccccc1`, for which the T/C was 100 % of control under setting [2]; 95 % of control and 124 % of control under setting [3]; 97 % of control and 111 % of control under setting [4]; 111 % of control (dose: 50.0 mg/kg/injection, schedule: Q04DX003 (ip), vehicle: saline); 106 % of control and 109 % of control (dose: 100.0 mg/kg/injection, schedule: Q01DX009 (ip), vehicle: saline); 100 % of control (dose: 100.0 mg/kg/injection, schedule: Q04DX003 (ip), vehicle: saline). The T/C reads like this: (dose: 200.0 mg/kg/injection, schedule: Q01DX009 (ip), vehicle: saline) 91 % of control; (dose: 200.0 mg/kg/injection, schedule: Q04DX003 (ip), vehicle: saline) 96 % of control; (dose: 300.0 mg/kg/injection, schedule: Q01DX009 (ip), vehicle: saline) 97 % of control; (dose: 400.0 mg/kg/injection, schedule: Q01DX009 (ip), vehicle: saline) 119 % of control; (dose: 400.0 mg/kg/injection, schedule: Q04DX003 (ip), vehicle: saline) 88 % of control.

With `Cc1ccccc1/C=C1\CC(C)(C)c2ccccc2C1=O`, the T/C is 100 % of control under setting [8]; 95 % of control under setting [9]; 95 % of control under setting [10]; 95 % of control under setting [11]; 104 % of control (dose: 400.0 mg/kg/injection, schedule: Q01DX009 (ip), vehicle: Klucel (hydroxypropylcellulose) (HPC)); 95 % of control under setting [12].

On to `CN(C)c1ccc(Cc2ccc(N(C)C)cc2[N+](=O)[O-])cc1`, for which the T/C under setting [9] was 100 % of control, the T/C under setting [11] is 95 % of control and the T/C under setting [12] is 104 % of control.
